# Source: US9487530B2, “Transient protection of normal cells during chemotherapy” (G1 Therapeutics, Inc., priority 2013, dated 2016)
# What was measured:
# [1] = system: 456 (395 non-mutant) kinases; assay: DiscoveRx KINOMEscan profiling; format: binding; conditions: 1000 nM
# Experimental: The compound was screened using a single concentration of 1000 nM (>1000 times the 1050 on Cdk4). Results from this screen confirmed the high potency against Cdk4 and high selectivity versus Cdk2.
# [2] = Mouse pharmacokinetics, oral gavage and intravenous; format: in vivo
# [3] = system: tHS68 cells (CDK4/6-dependent cell line); assay: Cell cycle arrest (propidium iodide), tHS68; format: cell-based; conditions: 300 nM for 24 hours
# Excerpt: To test the ability of Cdk4/6 inhibitors to induce a clean G1-arrest, a cell based screening method was used consisting of two Cdk4/6-dependent cell lines (tHS68 and WM2664; Rb-positive) and one Cdk4/6-independent (A2058; Rb-negative) cell line. […] At the conclusion of the experiment, cells were harvested, fixed, and stained with propidium iodide (a DNA intercalator), which fluoresces strongly red (emission maximum 637 nm) when excited by 488 nm light. Samples were run on Dako Cyan flow cytometer and >10,000 events were collected for each sample. Data were analyzed using FlowJo 2.2 software developed by TreeStar, Inc.
# [4] = system: RB-negative SCLC cell lines (H69, H82, H209, H345, NCI417, SHP-77); assay: EdU proliferation, RB-negative SCLC cell lines; format: cell-based, human; conditions: 24 hours treatment
# Experimental: The effect of Cdk4/6 inhibition on proliferation was measured by EdU incorporation. An RB-intact, Cdk4/6-dependent cell line (WM2664 or tHS68) and a panel of RB-negative SCLC cell lines (H69, H82, H209, H345, NCI417, or SHP-77) were analyzed for growth inhibition by the various CDK4/6 inhibitors.
# [5] = system: telomerized human diploid fibroblasts (tHDFs; tHS68); assay: Protection from chemotherapy-induced cell death, DNA damage and caspase activation in fibroblasts; format: cell-based
# Experimental: Cell survival was determined by Cell TiterGlo assay per manufacturer's recommendations. For both γ-H2AX and caspase 3/7 assays, cells were plated and allowed to become adherent for 24 hours. […] For γ-H2AX, cells were harvested for analysis 8 hours after chemotherapy exposure. For the γ-H2AX assay, cells were fixed, permeabilized, and stained with anti-γ-H2AX as per the γ-H2AX Flow Kit (Millipore) and quantitated by flow cytometry. Data was analyzed using FlowJo 2.2 software developed by TreeStar, Inc. For the in vitro caspase 3/7 assay, cells were harvested 24 hours post chemotherapy treatment. Caspase 3/7 activation was measured using the Caspase-Glo® 3/7 Assay System (Promega) per manufacturer's recommendations.
# [6] = system: whole bone marrow, HSPC and differentiated hematopoietic cells; assay: EdU incorporation in mouse hematopoietic cell lineages; format: in vivo; conditions: 150 mg/kg oral gavage; for inhibition at 150 mg/kg: Mus musculus
# Experimental: Ten-hours later, all mice were given a single i.p. injection of 100 mcg EdU (5-ethynyl-2′-deoxyuridine) to label cells in S-phase of the cell cycle. All treated mice were euthanized 2 hours after EdU injection, bone marrow cells were harvested and processed for flow cytometric analysis of EdU-incorporation (FIG. 13).
# blood cell counts = assay: 5FU-induced myelosuppression, repeated cycles; format: in vivo, mouse; conditions: 150 mg/kg oral + 5FU 150 mg/kg every 21 days, 3 cycles; Day 10 of third cycle
# Excerpt: This was repeated every 21 days for 3 cycles. Blood samples were taken for hematology analysis on Day 10 of Cycles 1-3.
# [7] = system: human renal proximal tubule cells; assay: Cell cycle of renal proximal tubule cells with etoposide or cisplatin; format: cell-based; conditions: 10-1000 nM in combination with etoposide or cisplatin
# Experimental: The ability of Cdk4/6 inhibitors to protect human renal proximal tubule cells from chemotherapy induced DNA damage was analyzed using etoposide and cisplatin. […] At the conclusion of the experiment, cells were harvested, fixed, and stained with propidium iodide (a DNA intercalator), which fluoresces strongly red (emission maximum 637 nm) when excited by 488 nm light. Samples were run on Dako Cyan flow cytometer.
smiles,measurement,setting,value
"CN1CCN(c2ccc(Nc3ncc4cc5n(c4n3)C3(CCCCC3)CNC5=O)nc2)CC1 [T, 2′-((5-(4-methylpiperazin-1-yl)pyridin-2-yl)amino)-7′,8′-dihydro-6′H-spiro[cyclohexane-1,9′-pyrazino[1′,2′:1,5]pyrrolo[2,3-d]pyrimidin]-6′-one]",number of 395 non-mutant kinases inhibited,[1]; inhibitory threshold 65%,92 (23.3%)
same,number of 395 non-mutant kinases inhibited,[1]; inhibitory threshold 90%,31 (7.8%)
same,number of 395 non-mutant kinases inhibited,[1]; inhibitory threshold 99%,6 (1.5%)
same,F (oral bioavailability),[2],80%
same,S-phase peak,[3],causes a loss of the S-phase peak
same,growth (cells in S-phase by EdU),[4],does not affect the growth
same,cell survival (Cell TiterGlo),[5]; in the presence of etoposide (5 uM) or carboplatin (100 uM),dose dependent cell survival
same,DNA damage as measured by gamma-H2AX formation,"[5]; prior to carboplatin, doxorubicin, etoposide, camptothecin or paclitaxel",attenuated DNA damage
same,caspase 3/7 activation,"[5]; prior to carboplatin, doxorubicin, etoposide, camptothecin, and paclitaxel",robust decrease in caspase 3/7 activation in a dose-dependent manner
same,reduction in EdU+ cell frequencies,[6]; B cell progenitors,> 80%
same,reduction in EdU+ cell frequency,"[6]; CMP, GMP, MEP and CLP",76-92%
same,reduction in EdU+ cell frequency,[6]; Mac1+G1+ myeloid cells,46%
same,reduction in EdU+ cell frequencies,[6]; T cell progenitors,> 99%
same,reduction in EdU+ cell frequency,[6]; Ter119+ erythroid cells,58%
same,reduction of EdU+ cell frequency,[6]; unfractionated whole bone marrow cells,~70%
same,inhibition at 150 mg/kg,"[6]; Hematopoietic stem cell, hematopoietic stem cells (HSC)",74%
same,inhibition at 150 mg/kg,[6]; multipotent progenitors (MPP),90%
same,myelosuppression with repeated 5FU,blood cell counts,reduced the myelosuppression
same,cell cycle distribution,[7],"decrease in the percentage of S-phase cells, with a corresponding rise in the percentage of cells in the G0-G1 phase"
